Data on one compound can be found in patent US20090196878A1, “Intestinal epithelial glucose sensor” (priority 2004, published 2009).

The conditions of series [1]: reported, Roberts et al. 2000; cited from earlier work.
Series [2] has as its system SGLT1 expression. Description: Dietary trial, SGLT1 expression in α-gustducin knock-out mice. Format: in vivo, mouse. Conditions: α-gustducin KO mice, low-carbohydrate + sucralose diet, 2 weeks. The procedure:
(§1) Male CD-1 and C57BL/6 mice, six weeks old, from Charles River Laboratories were used. The α-gustducin knock out mouse was described by Wong et al. (1996); the T1R3 knock out mouse was described by Damak et al. 2003).
(§2) High and low carbohydrate diets were resp. TestDiet® 5810 and TestDiet® 5787-9. For the sucralose test, the low carbohydrate diet was supplemented with sucralose (1,6-dichloro-1,6-dideoxy-beta-D-fructofuranosyl-4-chloro-4-deoxy-alpha-galactopyranoside) at 2 mM.
(§3) Animals were killed by concussion followed by cervical dislocation. The entire small intestine was removed and flushed with ice-cold 0.9% NaCl, opened longitudinally, rinsed in saline and mucous removed by blotting. The small intestine was then divided into proximal, mid and distal sections and the mucosa removed by scraping. Mucosal scrapings were frozen immediately in liquid nitrogen and stored at −80° C. until use. […]
(§4) Second, groups of wildtype and T1R3 and α-gustducin KO mice were placed on each of three iso-caloric diets a) low carbohydrate, b) high carbohydrate, and c) low carbohydrate+artificial sweetener (sucralose), for two weeks. After this time the mice were killed and the small intestines were removed, divided into proximal, mid and distal regions, and SGLT1 expression, at protein and mRNA levels, were measured in each.

Series [3] has as its system SGLT1 expression. Kind of series: Dietary trial, SGLT1 protein by western blot of luminal membrane vesicles in wild-type mice. Type of series: in vivo, mouse. Conditions: low carbohydrate + sucralose diet, 2 weeks. The procedure:
as §1, §2, §3, §4
On the technique in general: Immunoblotting shows a protein as a band on a membrane.

The test system of series [4] is SGLT1 expression. Kind of series: Dietary trial, SGLT1 expression in T1R3 knock-out mice. Format: in vivo, mouse. As to conditions: T1R3 KO mice, low-carbohydrate + sucralose diet, 2 weeks. The procedure: as §1, §2, §3, §4
In series [5] the test system is SGLT1 expression. Kind of series: Dietary trial, SGLT1 mRNA by real-time PCR in wild-type mice. Format: in vivo, mouse. Conditions: proximal and mid intestinal regions, low carbohydrate diet plus sucralose 2 mM, 2 weeks, qPCR. The procedure: as §1, §2, §3, §4

As for `OC[C@H]1O[C@H](O[C@]2(CCl)O[C@H](CCl)[C@@H](O)[C@@H]2O)[C@H](O)[C@@H](O)[C@H]1Cl` [sucralose, 1,6-dichloro-1,6-dideoxy-beta-D-fructofuranosyl-4-chloro-4-deoxy-alpha-galactopyranoside], in series [1], the “hydrolysis, transport and metabolism within the mammalian small intestine” value was “non-hydrolysed, non-transported and non-metabolised”. Further, in the series on SGLT1 expression [2], the “SGLT1 mRNA” value is “no increase” and the SGLT1 protein result is reported as “no increase”. In the series on SGLT1 expression [3], the SGLT1 protein expression entry was “increased”. For the same compound, in the series on SGLT1 expression [4], the “SGLT1 mRNA” value was “no increase” and the SGLT1 protein entry is “no increase”. Further, in the series on SGLT1 expression [5], the “increase in SGLT1 mRNA” value is 30-70%.
